Data: ChEMBL document CHEMBL1153286, “Synthesis and biological evaluation of sulfonylurea and thiourea derivatives substituted with benzenesulfonamide groups as potential hypoglycemic agents” (Bioorg Med Chem Lett, 2009)

Experiments:
Type in all cases: functional
[1] = Effect on insulin release in rat pancreatic cells at 1 umol/L after 6 hrs by radioimmunoassay
[2] = Effect on insulin release in rat pancreatic cells at 10 umol/L after 6 hrs by radioimmunoassay
[3] = Effect on insulin release in rat pancreatic cells at 100 umol/L after 6 hrs by radioimmunoassay
Adipocyte [4] = assay: Effect on 2-deoxy-D-[1-3H]glucose transport in Sprague-Dawley rat adipocytes at 1 uM in absence of insulin by liquid scintillation counting
Adipocyte [5] = assay: Effect on 2-deoxy-D-[1-3H]glucose transport in Sprague-Dawley rat adipocytes at 1 uM in presence of insulin by liquid scintillation counting
Adipocyte [6] = assay: Effect on 2-deoxy-D-[1-3H]glucose transport in Sprague-Dawley rat adipocytes at 10 uM in absence of insulin by liquid scintillation counting
Adipocyte [7] = assay: Effect on 2-deoxy-D-[1-3H]glucose transport in Sprague-Dawley rat adipocytes at 10 uM in presence of insulin by liquid scintillation counting
Adipocyte [8] = assay: Effect on 2-deoxy-D-[1-3H]glucose transport in Sprague-Dawley rat adipocytes at 100 uM in absence of insulin by liquid scintillation counting
Adipocyte [9] = assay: Effect on 2-deoxy-D-[1-3H]glucose transport in Sprague-Dawley rat adipocytes at 100 uM in presence of insulin by liquid scintillation counting
[10] = Increase in insulin release in rat pancreatic cells at 100 umol/L after 6 hrs by radioimmunoassay relative to basal level
Adipocyte [11] = assay: Increase in glucose absorption in Sprague-Dawley rat adipocytes at 100 uM by liquid scintillation counting relative to basal level

SMILES | Activity [1] | Activity [2] | Activity [3] | Activity (Adipocyte [4]) | Activity (Adipocyte [5]) | Activity (Adipocyte [6]) | Activity (Adipocyte [7]) | Activity (Adipocyte [8]) | Activity (Adipocyte [9]) | fold change (FC) [10] | fold change (FC) (Adipocyte [11])
O=C(NC1CCCCC1)NS(=O)(=O)c1ccc(CCNS(=O)(=O)c2ccccc2)cc1 | 22.86 uIU/ml | 28.27 uIU/ml | 31.29 uIU/ml |  |  |  |  |  |  |  | 
COc1ccc(NC(=S)NS(=O)(=O)c2ccc(CCNS(=O)(=O)c3ccc(Br)cc3)cc2)cc1 | 22.25 uIU/ml | 24.67 uIU/ml | 26.17 uIU/ml | 4125.36 disintegrations/minute | 5177.84 disintegrations/minute | 4026.52 disintegrations/minute | 5234.61 disintegrations/minute | 4335.26 disintegrations/minute | 5069.25 disintegrations/minute |  | 
CCC1=C(C)CN(C(=O)NCCc2ccc(S(=O)(=O)NC(=O)N[C@H]3CC[C@H](C)CC3)cc2)C1=O [GLIMEPIRIDE] |  |  | 48.14 uIU/ml | 5061.2 disintegrations/minute | 6365.67 disintegrations/minute | 7476.6 disintegrations/minute | 8593.72 disintegrations/minute | 11068.51 disintegrations/minute | 13255.41 disintegrations/minute | 2.03 | 2.5
O=S(=O)(NCCc1ccc(S(=O)(=O)NC(=S)Nc2ccc(Cl)cc2)cc1)c1ccc(Cl)cc1 | 29.46 uIU/ml | 26.37 uIU/ml | 26.07 uIU/ml | 4587.26 disintegrations/minute | 5179.3 disintegrations/minute | 4432.15 disintegrations/minute | 5436.58 disintegrations/minute | 4763.58 disintegrations/minute | 5764.25 disintegrations/minute |  | 
COc1ccc(NC(=S)NS(=O)(=O)c2ccc(CCNS(=O)(=O)c3ccc(C)cc3)cc2)cc1 | 24.48 uIU/ml | 23.5 uIU/ml | 23.69 uIU/ml | 4425.16 disintegrations/minute | 5026.34 disintegrations/minute | 4381.35 disintegrations/minute | 5377.15 disintegrations/minute | 4550.21 disintegrations/minute | 5573.24 disintegrations/minute |  | 
COc1ccc(NC(=S)NS(=O)(=O)c2ccc(CCNS(=O)(=O)c3ccc(Cl)cc3)cc2)cc1 | 24.05 uIU/ml | 24.36 uIU/ml | 26.09 uIU/ml |  |  |  |  |  |  |  | 
Cc1ccc(NC(=S)NS(=O)(=O)c2ccc(CCNS(=O)(=O)c3ccccc3)cc2)cc1 | 27.99 uIU/ml | 27.71 uIU/ml | 24.97 uIU/ml | 4377.95 disintegrations/minute | 5319.5 disintegrations/minute | 4385.12 disintegrations/minute | 5644.89 disintegrations/minute | 4663.52 disintegrations/minute | 5761.23 disintegrations/minute |  | 
Cc1ccc(S(=O)(=O)NCCc2ccc(S(=O)(=O)NC(=S)Nc3ccc(Cl)cc3)cc2)cc1 | 23.89 uIU/ml | 23.01 uIU/ml | 22.25 uIU/ml | 5687.31 disintegrations/minute | 5115.18 disintegrations/minute | 6514.04 disintegrations/minute | 5512.62 disintegrations/minute | 7061.15 disintegrations/minute | 7832.17 disintegrations/minute |  | 1.59
Cc1ccc(S(=O)(=O)NCCc2ccc(S(=O)(=O)NC(=O)NC3CCCCC3)cc2)cc1 | 22.45 uIU/ml | 22.7 uIU/ml | 25.93 uIU/ml | 4281.3 disintegrations/minute | 5374.21 disintegrations/minute | 4174.59 disintegrations/minute | 5533.15 disintegrations/minute | 4458.36 disintegrations/minute | 5297.11 disintegrations/minute |  | 
O=C(NC1CCCCC1)NS(=O)(=O)c1ccc(CCNS(=O)(=O)c2ccc(Br)cc2)cc1 | 32.09 uIU/ml | 45.01 uIU/ml | 65.98 uIU/ml | 4421.72 disintegrations/minute | 5523.89 disintegrations/minute | 4861.54 disintegrations/minute | 6002.46 disintegrations/minute | 6556.61 disintegrations/minute | 7896.14 disintegrations/minute |  | 
